# In patent publication US20260151391A1, “TREATMENT OF MITOCHONDRIAL DISEASES WITH sGC STIMULATORS” (Tisento Therapeutics Inc., priority 2022, published 2026):
# Test system: normotensive Sprague Dawley rats
# Experiment: Blood pressure effects in normotensive rats following acute oral dose
# Format: in vivo, rat
# Conditions: for Peak ΔVMAP (mm Hg): sodium salt in Milli-Q water, vehicle-adjusted MAP, 10-minute bins; for Time at Peak: time of peak ΔVMAP
# Protocol: Male, normotensive Sprague Dawley rats were purchased from Charles River Laboratories. These rats have indwelling femoral artery catheters installed. Animals were harnessed to a tether system and attached to pressure transducers to monitor cardiovascular (CV) parameters, specifically mean arterial pressure (MAP) and heart rate (HR). Animals were acclimated to the system overnight and baseline CV parameters collected. The conscious, freely moving rats were then administered a single oral dose of the Compound I-14 (doses generated from the sodium salt of Compound I-14) in Milli-Q water at 1, 3, 10 and 30 mg/kg. A blood sample was collected from each animal through the catheter line at pre-dose and 2 hours post-dose for compound concentration quantification. Hemodynamic measures were recorded for ten hours post-dose. Fifty-four male rats were used for these studies and they were ordered to be received at a body weight range of 250-275 grams. They were single housed under controlled conditions of temperature (21±1° C.), relative humidity (36±1%) and placed in a 12-hr light-dark cycle (lights on at 6:00 AM and off at 6:00 PM) room at SmartLabs vivarium (21 Erie Street, Cambridge, MA) under protocol MIL-110. Animals were allowed ad libitum access to chow (LabDiet Prolab Isopro RMH 3000, St. Louis, MO) and water. Two sets of studies were carried out. For the first set of studies Compound I-14 was formulated at 0.3 and 1.0 mg/ml in Milli-Q water and frozen at −20° C. For the second set of studies, the sodium salt of Compound I-14 was weighed at Cyclerion Therapeutics and reconstituted at SmartLabs to provide 0.1, 0.3, 1.0 and 3.0 mg/ml solutions of Compound I-14 in Milli-Q water. Formulations prepared were thawed less than 4 hours before dosing and stored at room temperature or were made less than 2 hours before dosing and stored at room temperature.
# Studies were conducted over 6 separate sessions. Animals were initially used within 3 days of receipt and if catheters remained patent, reused once after 6-7 days of washout. No animals were used more than twice.
# This study utilized ADInstruments LabChart (v8) to collect hemodynamic data from conscious, freely moving rats tethered to a blood pressure transducer (Harvard Apparatus cat #APT300). Following an overnight acclimation to the tether and pressure transducer, animals were dosed following a 1-hr baseline recording period. Animals were administered a single oral (P.O.) dose of the sodium salt form of Compound I-14 or vehicle at a dose volume of 10 mL/kg. Data collection was continued for 10 hours post-dose.
# ADInstruments LabChart (v8) was used to monitor and export hemodynamic data. Blood pressure and heart rate were continuously monitored, and data were collected at 1000 data points per second then averaged into 10-minute bins for analysis. Change from baseline MAP (ABMAP) and HR (ABHR) were calculated using the pre-dose baseline averaged over the 1-hr period prior to dosing using Microsoft Excel for Microsoft 365. This 10-minute bin dataset was used to determine peak ΔVMAP, time peak ΔVMAP, peak ΔVHR and time of peak ΔVHR. The dataset was further consolidated into 1-hr bins for the MAP and HR figures and the analysis of ΔBMAP, ΔBMAP, and ΔBHR. The definitions of these terms/abbreviations are summarized below:
# Statistical analyses were performed in Graphpad Prism (v8). Significance, as compared to vehicle-treated rats, for ΔBMAP and ΔBHR data was determined by 2-way repeated measures ANOVA followed by a Dunnett's multiple comparisons test, if there was a missing data point, a mixed-effect analysis was utilized. Vehicle-adjusted MAP (ΔVMAP) was calculated by subtracting ΔBMAP of the vehicle group from the ΔBMAP of each dose group at each timepoint. Vehicle-adjusted HR (ΔVHR) was calculated in a similar manner to ΔVMAP.
# Significance of AOC data were determined by one-way ANOVA followed by a Dunnett's multiple comparisons test as compared to vehicle. […]
compound,measurement,setting,value
"Cc1cc(F)c(Cc2nc(-c3ncc(F)c(O)n3)cn3ccnc23)cc1F [Compound I-14, 5-fluoro-2-(8-(2,5-difluoro-4-methylbenzyl)imidazo[1,2-a]pyrazin-6-yl)pyrimidin-4-ol]",Peak ΔVMAP (mm Hg),1 mg/kg single oral dose,−6.2 mm Hg
same,Peak ΔVMAP (mm Hg),3 mg/kg single oral dose,−10.1 mm Hg
same,Peak ΔVMAP (mm Hg),10 mg/kg single oral dose,−22.3 mm Hg
same,Peak ΔVMAP (mm Hg),30 mg/kg single oral dose,−24.4 mm Hg
same,no effect dose on ΔBMAP,"single oral dose, main effect analysis, simple effects analysis and AOC",1 mg/kg
same,Time at Peak,1 mg/kg single oral dose,90 min
same,Time at Peak,3 mg/kg single oral dose,70 min
same,Time at Peak,10 mg/kg single oral dose,30 min
same,Time at Peak,30 mg/kg single oral dose,30 min
